Results from US4556677A, “Alkane and alkene derivatives and their use” (Farmos Group Ltd., priority 1981, dated 1985).
Counter-ions that a name gives are not always drawn.

What was measured:
[1] = test system: transplantable rat mammary adenocarcinoma; assay: effect on transplantable rat mammary adenocarcinoma; type: in vivo
Description: (§1) The anti-tumour effect was investigated in vivo against DMBA-induced rat mammary adenocarcinomas and transplantable mammary adenocarcinoma according to the following methods:
Transplantable rat mammary adenocarcinoma was developed by inoculating pieces of DMBA-induced carcinomas subcutaneously to healthy mature female rats. A tumor which expressed malignant growth was selected for further transplantations.
The effects of compounds mentioned earlier against transplantable rat mammary adenocarcinoma can be seen in table 4.
The figures in table 4 refer to relative sizes compared to controls which is 100.

[2] = test system: immature mouse uterus; assay: estrogenic effect in vivo, immature mouse uterus weight; settings: for oestrogenic effect, % less than that of oestradiol 0.05 mg/kg: s.c., immature mice; for estrogenic effect (in words): immature mouse uterus weight
Protocol: (§2) The estrogen-antiestrogen (progesterone-antiprogesterone) effect in vivo was determined as follows:
The estrogenic properties of the molecules were determined by administering the molecules, suspended in sesam oil, subcutaneously to 21 days old immature mice on three consecutive days. The mice were killed on the fourth day and the uterus was weighed. Estradiol (positive control) increases the weight of the uterus. The weight correlates with the estrogenic effect of the molecules.
The estrogenic effect of compounds of the invention as measured by their ability to increase the weight of immature mouse uterus was usually far less than that of oestradiol, the positive control. […] At the dose of 0.5 mg/kg the oestrogenic effect of compound 1, 7 and 8 were respectively 20%, 75% and 83% less and at the dose of 5 mg/kg the oestrogenic effect of compound 2 was 60% less than that of oestradiol 0.05 mg/kg.
(§3) In Table 2 a summary of the oestrogenic/antioestrogenic and progestanic/antiprogestanic effect of some of the compounds can be seen. The percentages refer to increase/reduction in mice uterus weights.

[3] = test system: MCF-7 human mammary adenocarcinoma cell line; assay: anti-tumour effect in vitro, growth of MCF-7 cells (bioluminescence ATP assay); type: cell-based; settings: Homo sapiens, MCF7; MCF-7, Table 3; read-out: Antitumour effect (IC50 = concentration of compound where 50% inhibition of cell growth could be seen)
Protocol: The anti-tumour effect was studied in vitro as follows:
The growth of MCF-7 cell line (human mammary adenocarcinoma, known to be estrogen-dependent) was evaluated in the presence or absence of estradiol, medroxyprogesterone acetate or the molecules to be investigated. Combinations of molecule plus estradiol and molecule plus medroxyprogesterone were also studied. The amount of living cells after 4 h, 24 h and 48 h incubations were determined by bioluminescence assay (intracellular ATP determination).
The antitumour effects of the compounds had been tested in vitro against MCF-7 human mammary adenocarcinoma cell line and in vivo against DMBA-induced rat mammary adenocarcinomas and transplantable mammary adenocarcinoma.
In table 3 the antitumour effects of certain compounds can be seen.

[4] = target: T1, estrogen receptors (Rattus norvegicus, UniProt P06211); assay: affinity to estrogen receptors, competition with 3H-labelled 17-β-estradiol (dextran-charcoal method); type: binding; settings: rat uterus cytosol, Table 1; read-out: Affinity (concentration of compound where 50% competition (inhibition) with 3H-estradiol occurred)
T1 construct: rat uterus cytosol preparation; from tissue; host or cells: rat uterus cytosol
T1 sequence (P06211 1-600): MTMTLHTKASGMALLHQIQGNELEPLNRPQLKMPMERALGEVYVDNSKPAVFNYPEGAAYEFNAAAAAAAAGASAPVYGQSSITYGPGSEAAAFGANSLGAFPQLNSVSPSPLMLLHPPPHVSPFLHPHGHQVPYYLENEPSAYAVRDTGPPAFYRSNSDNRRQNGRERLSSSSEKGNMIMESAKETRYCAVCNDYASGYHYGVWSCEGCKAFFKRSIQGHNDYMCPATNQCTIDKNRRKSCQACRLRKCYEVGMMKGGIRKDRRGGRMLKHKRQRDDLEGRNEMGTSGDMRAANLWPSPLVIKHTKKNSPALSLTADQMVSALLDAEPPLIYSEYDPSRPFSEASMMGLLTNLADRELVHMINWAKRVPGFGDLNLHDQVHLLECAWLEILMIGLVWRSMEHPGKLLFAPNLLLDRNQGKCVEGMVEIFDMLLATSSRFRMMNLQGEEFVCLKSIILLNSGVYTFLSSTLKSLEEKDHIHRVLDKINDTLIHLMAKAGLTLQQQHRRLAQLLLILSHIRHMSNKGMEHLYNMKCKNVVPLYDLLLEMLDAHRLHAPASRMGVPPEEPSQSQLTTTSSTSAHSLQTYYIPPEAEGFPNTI
Protocol: The affinity to estrogen receptors was determined by the ability of the molecules to compete with ^3 H-labelled 17-β-estradiol in rat uterus cytosol preparation. After incubation, receptor-bound and receptor-unbound ligands were separated by a known dextrancharcoal method. (Korenman, S. G.: "Comparative binding affinity of estrogens and its relation to estrogenic potency". Steroids 13: 163-177, 1969). […] The results in table 1 are shown as follows: | with ^3 H--estradiol occurred

[5] = test system: DMBA-induced rat mammary adenocarcinomas; assay: antitumour effect in vivo against DMBA-induced rat mammary adenocarcinomas; settings: 7.5 mg/kg
Protocol: as §1
Mammary adenocarcinomas were induced by DMBA in 35-40 days old female rats. Treatment with the molecules to be investigated was started after palpable tumours had appeared. Tumour size and numbers of tumours were evaluated twice a week. Tumour sizes in the control group, treated with solvent, were compared with the test groups.
The antitumour effect in vivo against DMBA-induced mammary carcinomas was investigated as described earlier. […] Compound 2 at the dose of 7.5 mg/kg caused a 63% decrease in the size of tumours compared to the control.

[6] = test system: mouse uterus; assay: progestanic effect in vivo, reduction of mouse uterus weight; settings: given alone
Protocol: as §2
(§4) The (anti)progestanic effects were studied in a similar manners as the estrogenic ones. Medroxyprogesterone acetate, which decreases uterus weight, was used as reference.
(§5) The progestanic and antiprogestanic effects of compounds were measured as described earlier. The compound No. 2 reduced the weight of mouse uterus by 49% compared to control while medroxyprogesterone acetate gave 40% reduction.
as §3

[7] = test system: mouse uterus; assay: antiprogestanic/synergistic effect in vivo, given together with medroxyprogesterone acetate, mouse uterus weight
Protocol: as §2, §4, §5, §3

[8] = test system: immature mouse uterus; assay: antiestrogenic effect in vivo, inhibition of oestradiol induced uterus weight increase in immature mice; settings: for inhibition of oestradiol induced effect on mouse uterus: 5 mg/kg
Protocol: as §2
The antiestrogenic effects of the molecules were determined in a similar manner in immature mice. In this case, the ability of the molecules to inhibit estrogen-induced uterus weight increase was investigated, too.
The compound 1 at a dose of 0.5 mg/kg caused a 50% inhibition of oestradiol induced effect on mouse uterus.
as §3

[9] = test system: mouse uterus; assay: antiprogestanic/synergistic effect in vivo, given together with medroxyprogesterone acetate, mouse uterus weight; settings: vs 20% for the acetate alone
[10] = Table 2, 0.5 mg/kg, with medroxyprogesterone acetate 0.06 mg/kg
[11] = together with medroxyprogesterone acetate
[12] = Table 2, 0.5 mg/kg, with oestradiol 0.05 mg/kg

SMILES: CC/C(=C(\c1ccccc1)c1ccc(OCCN(C)C)cc1)C1CCCC1 [Compound 2, (Z)--2-cyclopentyl-1-(p-(N,N--dimethyl-2-amino-ethoxy)phenyl)-1-phenyl-1-butene, hydrochloride]
- relative tumour size compared to controls which is 100 ([1]; 1.0 mg/kg): 82
- relative tumour size compared to controls which is 100 ([1]; 5.0 mg/kg): 87
- relative tumour size compared to controls which is 100 ([1]; 10.0 mg/kg): 69
- oestrogenic effect, % less than that of oestradiol 0.05 mg/kg ([2]; 5 mg/kg): 60%
- Given alone: oestrogenic effect (in words) ([2]; Table 2, 0.5 mg/kg, given alone): oestrogenic
- estrogenic effect (in words) [2]: dose dependent
- IC50 [3]: 5 to 10 µM
- IC50 [4]: 0.1 to 10 µM
- decrease in size of tumours compared to the control [5]: 63%
- Given alone: progestanic effect (in words) ([6]; Table 2, 0.5 mg/kg): progestanic
- Given alone: reduction in mice uterus weight ([6]; Table 2, 0.5 mg/kg): 49%
- reduction of mouse uterus weight compared to control ([6]; dose not given): 49%
- Given with medroxyprogesterone acetate: effect (in words) [7, 10]: synergistic
- Given with medroxyprogesterone acetate: reduction in mice uterus weight [7, 10]: 61%
- antiprogestanic / synergistic effect with medroxyprogesterone acetate (in words) [7, 11]: no antiprogestanic effects but a synergistic effect could be seen
- inhibition of oestradiol induced effect on mouse uterus [8]: 50%
- Given with oestradiol: effect (in words) [8, 12]: antioestrogenic
- Given with oestradiol: reduction in mice uterus weight [8, 12]: 36%

SMILES: CC/C(=C(\c1ccccc1)c1ccc(OCCN(CC)CC)cc1)C1CCCC1 [Compound 8, (Z)-2-cyclopentyl-1-[p-(N,N-diethyl-2-aminoethoxy)phenyl]-1-phenyl-1-butene]
- oestrogenic effect, % less than that of oestradiol 0.05 mg/kg ([2]; 0.5 mg/kg): 83%
- estrogenic effect (in words) [2]: dose dependent
- estrogenic effect at increased doses (in words) ([2]; increased doses (above 0.05 mg/kg), given alone): the estrogenic effect became evident
- IC50 [3]: 1 to 5 µM
- decrease in the weight of mouse uterus together with medroxyprogesterone acetate [9]: 16%
- IC50 [4]: 0.1 to 1 µM
- progestanic effect (in words) ([6]; 0.05 mg/kg): could be considered to be a progestanic one
- decrease in uterus weight ([6]; 0.05 mg/kg (lowest dose)): 12%
- Given with medroxyprogesterone acetate: reduction in mice uterus weight [7, 10]: 16%
- effect with medroxyprogesterone acetate at higher doses (in words) ([7]; higher doses, together with medroxyprogesterone acetate): an antiprogestanic effect was achieved
- antiprogestanic / synergistic effect with medroxyprogesterone acetate (in words) [7, 11]: neither synergism nor inhibition of medroxyprogesterone acetate was seen
- inhibition of oestradiol induced effect on mouse uterus [8]: 30%
- Given with oestradiol: reduction in mice uterus weight ([8]; Table 2, 5 mg/kg, with oestradiol 0.05 mg/kg): 32%
